Results reported in patent US11896592B2, “Certain triazolopyridines and triazolopyrazines, compositions thereof and methods of use therefor” (Hutchison Medipharma Limited, priority 2009, dated 2024).
Like-named read-outs stand apart in the source and are kept apart here.

Molecular target: T1, Recombinant human Met (c-Met) (Homo sapiens, UniProt P08581)
T1 construct: purchased Invitrogen PV3143
Assay: Inhibition of c-Met kinase activity using Transcreener FP assay
Assay type: biochemical
Details: Poly E4Y substrate, 28° C. 45 min
Description: Compound dilution: dilute test articles to 5 folds of the testing concentration using 20% DMSO.
The mixture is kept on ice until use;
Prepare ATP standard curve stock as following:
3. Enzymatic reaction: in 96-well reaction plate
Add 5 μL of test article or 5 μL of 20% DMSO or 5 μL of 500 mM EDTA;
Add 10 μL of Enzyme/Substrate stock;
Add 10 μL of ATP Diluent to begin the enzyme reaction and mix on plate shaker;
Add 5 μL of 20% DMSO, 10 μL of assay buffer and 10 μL of ATP standard curve stock into standard curve wells;
Gently shake at 28° C. for 45 min.
4. Stop reaction and detect ADP
Prepare Detection Mix: According to the procedures described in the Assay kit, Alexa633 tracer, ADP antibody and stop & detect buffer were added into H2O and mixed thoroughly. Prepare Tracer Only control: According to the procedures described in the Assay kit, ADP Alexa633 tracer and stop & detect buffer were added to H2O and mixed throughly.
Prepare No Tracer control: According to the procedures described in the Assay kit, the stop & detect buffer was diluted with H2O;
Add 25 μL of detection mix, Tracer Only control and No Tracer control into corresponding wells, respectively;
The reaction plate was gently shaken at 28° C. for 1 h;
Florescence polarization (FP) was measured on TECAN F500. Excitation wavelength: 610 nm, Emission wavelength: 670 nm.
Compound well [ADP] represents the ADP concentration of the compound well. Positive control well [ADP] represents the ADP concentration of the 20% DMSO well. Conversion of mP value to ADP concentration is based on the formula which is determined by standard curve.
IC50: calculated using XL-Fit 2.0 software.

[1] = read-out: IC50, inhibition of c-Met kinase activity
[2] = IC50, inhibition of c-Met kinase activity

T1 sequence (P08581 956-1390 limits assumed): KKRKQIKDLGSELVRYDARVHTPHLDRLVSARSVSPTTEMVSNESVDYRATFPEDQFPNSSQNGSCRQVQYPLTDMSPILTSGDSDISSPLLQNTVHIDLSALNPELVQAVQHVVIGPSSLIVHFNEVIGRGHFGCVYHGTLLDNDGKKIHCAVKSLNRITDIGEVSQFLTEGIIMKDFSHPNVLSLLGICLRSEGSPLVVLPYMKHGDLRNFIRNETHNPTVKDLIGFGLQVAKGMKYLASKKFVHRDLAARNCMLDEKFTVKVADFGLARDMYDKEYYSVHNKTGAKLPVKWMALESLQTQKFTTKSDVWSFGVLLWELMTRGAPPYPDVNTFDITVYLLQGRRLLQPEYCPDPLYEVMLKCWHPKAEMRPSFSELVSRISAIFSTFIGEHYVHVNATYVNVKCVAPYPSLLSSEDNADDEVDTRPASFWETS

SMILES	IC50 [1] [nM]	IC50 [2] [nM]
c1cnc2ccc(Cn3nnc4ncc(Nc5cncc(N6CCOCC6)c5)nc43)cc2c1 [Compound 193]	1 to 100	
OCCOc1cc(Nc2cnc3nnn(Cc4ccc5ncccc5c4)c3n2)ccn1 [Compound 194]	1 to 100	
COc1cc(Nc2cnc3nnn(Cc4ccc5ncccc5c4)c3n2)ccn1 [Compound 195]	1 to 100	
Cc1ccnc(Nc2cnc3nnn(Cc4ccc5ncccc5c4)c3n2)c1 [Compound 196]	1 to 100	
COc1cccc(Nc2cnc3nnn(Cc4ccc5ncccc5c4)c3n2)n1 [Compound 197]	1 to 100	
c1cnc2ccc(Cn3nnc4ncc(Nc5cc[nH]n5)nc43)cc2c1 [Compound 198]	1 to 100	
Cc1coc(Nc2cnc3nnn(Cc4ccc5ncccc5c4)c3n2)n1 [Compound 199]	1 to 100	
Cc1cc(Nc2cnc3nnn(Cc4ccc5ncccc5c4)c3n2)no1 [Compound 200]	1 to 100	
OCCOc1ccnc(Nc2cnc3nnn(Cc4ccc5ncccc5c4)c3n2)c1 [Compound 201]	100 to 1000	
COCCOc1cccc(Nc2cnc3nnn(Cc4ccc5ncccc5c4)c3n2)c1 [Compound 202]	1 to 100	
COCCNc1cncc(Nc2cnc3nnn(Cc4ccc5ncccc5c4)c3n2)c1 [Compound 203]	1 to 100	
COCCNc1ccnc(Nc2cnc3nnn(Cc4ccc5ncccc5c4)c3n2)c1 [Compound 204]	100 to 1000	
OCCNc1ccnc(Nc2cnc3nnn(Cc4ccc5ncccc5c4)c3n2)c1 [Compound 205]	100 to 1000	
O[C@@H]1CCC[C@H]1Nc1ccnc(Nc2cnc3nnn(Cc4ccc5ncccc5c4)c3n2)c1 [Compound 206]	100 to 1000	
O[C@@H]1CCC[C@H]1Nc1cc(Nc2cnc3nnn(Cc4ccc5ncccc5c4)c3n2)ccn1 [Compound 207]	1 to 100	
COCCOc1ccncc1Nc1cnc2nnn(Cc3ccc4ncccc4c3)c2n1 [Compound 208]	100 to 1000	
COCCNc1ccncc1Nc1cnc2nnn(Cc3ccc4ncccc4c3)c2n1 [Compound 209]	100 to 1000	
COc1ccncc1Nc1cnc2nnn(Cc3ccc4ncccc4c3)c2n1 [Compound 210]	1 to 100	
c1cncc(Nc2cnc3nnn(Cc4ccc5ncccc5c4)c3n2)c1 [Compound 212]	1 to 100	
COc1cccnc1Nc1cnc2nnn(Cc3ccc4ncccc4c3)c2n1 [Compound 213]	1 to 100	
c1cnc2ccc(Cn3nnc4ccc(-n5ccnc5)nc43)cc2c1 [Compound 214]	1 to 100	
N#Cc1cc(Nc2ccc3nnn(Cc4ccc5ncccc5c4)c3n2)ccn1 [Compound 215]	1 to 100	
COCCOc1ncccc1Nc1cnc2nnn(Cc3ccc4ncccc4c3)c2n1 [Compound 216]	100 to 1000	
c1cnc2ccc(Cn3nnc4ncc(Nc5ccnc(O[C@H]6CCOC6)c5)nc43)cc2c1 [Compound 217]	1 to 100	
c1cnc2ccc(Cn3nnc4ncc(Nc5ccnc(O[C@@H]6CCOC6)c5)nc43)cc2c1 [Compound 218]	1 to 100	

SMILES	IC50 [1] [nM]	IC50 [2] [nM]
O[C@@H]1CCC[C@H]1Nc1ccnc(Nc2ccc3nnn(Cc4ccc5ncccc5c4)c3n2)c1 [Compound 219]	100 to 1000	
FC(F)(F)c1ccnc(Nc2cnc3nnn(Cc4ccc5ncccc5c4)c3n2)c1 [Compound 220]	1 to 100	
FC(F)(F)c1cccc(Nc2cnc3nnn(Cc4ccc5ncccc5c4)c3n2)n1 [Compound 221]	1 to 100	
c1cnc2ccc(Cn3nnc4ncc(Nc5ccnc(NC6CCOC6)c5)nc43)cc2c1 (centres unmarked) [Compound 222]	1 to 100	
N#Cc1ccnc(Nc2cnc3nnn(Cc4ccc5ncccc5c4)c3n2)c1 [Compound 223]	1 to 100	
Cc1cc(Nc2cnc3nnn(Cc4ccc5ncccc5c4)c3n2)cc(C)n1 [Compound 224]	1 to 100	
N#Cc1ccc(Nc2cnc3nnn(Cc4ccc5ncccc5c4)c3n2)nc1 [Compound 225]	1 to 100	
OC1COCC1Nc1ccnc(Nc2cnc3nnn(Cc4ccc5ncccc5c4)c3n2)c1 (centres unmarked) [Compound 226]	1 to 100	
COCCOc1cccc(Nc2cnc3nnn(Cc4ccc5ncccc5c4)c3n2)n1 [Compound 227]	1 to 100	
OC1COCC1Nc1cc(Nc2cnc3nnn(Cc4ccc5ncccc5c4)c3n2)ccn1 (centres unmarked) [Compound 228]	1 to 100	
CN1CC[C@H](Nc2cc(Nc3cnc4nnn(Cc5ccc6ncccc6c5)c4n3)ccn2)C1 [Compound 229]	1 to 100	
c1cnc2ccc(Cn3nnc4ncc(Nc5ccnc(N6CCOCC6)c5)nc43)cc2c1 [Compound 230]	1 to 100	
CNc1cc(Nc2cnc3nnn(Cc4ccc5ncccc5c4)c3n2)ccn1 [Compound 231]	100 to 1000	
COc1ccc(Nc2ccc3nnn(Cc4ccc5ncccc5c4)c3n2)nc1 [Compound 234]	100 to 1000	
Cc1cc(Nc2ccc3nnn(Cc4ccc5ncccc5c4)c3n2)ccn1 [Compound 235]	1 to 100	
c1cnc2ccc(Cn3nnc4ccc(Nc5ccncc5)nc43)cc2c1 [Compound 236]	100 to 1000	
c1cncc(Nc2ccc3nnn(Cc4ccc5ncccc5c4)c3n2)c1 [Compound 237]	1 to 100	
CN(c1ccnc(C#N)c1)c1cnc2nnn(Cc3ccc4ncccc4c3)c2n1 [Compound 239]	1 to 100	
OCCn1cc(Nc2cnc3nnn(Cc4ccc5ncsc5c4)c3n2)cn1 [Compound 240]	1 to 100	
O[C@@H]1CCC[C@H]1Nc1ccc2nnn(Cc3ccc4ncccc4c3)c2n1 [Compound 241]	100 to 1000	
OCC1CCN(c2ccc3nnn(Cc4ccc5ncccc5c4)c3n2)CC1 [Compound 245]	1 to 100	
OC1CCN(c2ccc3nnn(Cc4ccc5ncccc5c4)c3n2)C1 (centres unmarked) [Compound 246]	1 to 100	
OC1(CNc2ccc3nnn(Cc4ccc5ncccc5c4)c3n2)CCCCC1 [Compound 247]	100 to 1000	
c1cnc2ccc(Cn3nnc4ncc(Sc5ccncc5)nc43)cc2c1 [Compound 248]	1 to 100	
c1cnc2ccc(Cn3nnc4ccc(OC5CCOCC5)nc43)cc2c1 [Compound 249]	100 to 1000	

SMILES	IC50 [1] [nM]	IC50 [2] [nM]
c1cnc2ccc(Cn3nnc4ncc(Oc5ccncc5)nc43)cc2c1 [Compound 250]	1 to 100	
c1ccc(Sc2cnc3nnn(Cc4ccc5ncccc5c4)c3n2)nc1 [Compound 252]	1 to 100	
c1cnc2ccc(Cn3nnc4ccc(NC5CCOCC5)nc43)cc2c1 [Compound 253]	1 to 100	
Clc1cncc(Oc2cnc3nnn(Cc4ccc5ncccc5c4)c3n2)c1 [Compound 254]	1 to 100	
Cc1cccc(Oc2cnc3nnn(Cc4ccc5ncccc5c4)c3n2)n1 [Compound 255]	1 to 100	
c1ccc(Oc2cnc3nnn(Cc4ccc5ncccc5c4)c3n2)nc1 [Compound 257]	100 to 1000	
c1cncc(Oc2cnc3nnn(Cc4ccc5ncccc5c4)c3n2)c1 [Compound 258]	1 to 100	
Nc1cccc(Oc2cnc3nnn(Cc4ccc5ncccc5c4)c3n2)n1 [Compound 259]	1 to 100	
CC(=O)Nc1cc(-c2cnn(C)c2)nc2c1nnn2Cc1ccc2ncccc2c1 [Compound 261, N-(5-(1-methyl-1H-pyrazol-4-yl)-3-(quinolin-6-ylmethyl)-3H-[1,2,3]triazolo[4,5-b]pyridin-7-yl)acetamide]	100 to 1000	
Cn1cc(-c2cc(Cl)c3nnn(Cc4ccc5ncccc5c4)c3n2)cn1 [Compound 263, 6-((7-Chloro-5-(1-methyl-1H-pyrazol-4-yl)-3H-[1,2,3]triazolo[4,5-b]pyridin-3-yl)methyl)quinoline]	100 to 1000	
COCCn1cc(-c2cnc3nnn(Cc4ccn5nccc5c4)c3n2)cn1 [Compound 268]	1 to 100	
C[C@@H](c1ccc2nccn2c1)n1nnc2ncc(-c3cnn(C)c3)nc21 [Compound 270]		1 to 100
C[C@H](c1ccc2nccn2c1)n1nnc2ncc(-c3cnn(C)c3)nc21 [Compound 271]		1 to 100
Cn1cc(-c2cnc3nnn(Cc4ccc5ncc(CO)n5c4)c3n2)cn1 [Compound 272]	1 to 100	
OCCn1cc(-c2ccc3nnn(Cc4ccc5nccn5n4)c3n2)cn1 [Compound 273]	100 to 1000	
c1cc(-c2cnc3nnn(Cc4ccc5nccn5c4)c3n2)ccn1 [Compound 275]	1 to 100	
COc1ccc(-c2cnc3nnn(Cc4ccc5nccn5c4)c3n2)cn1 [Compound 276]	1 to 100	
CC(c1ccc2nccn2c1)n1nnc2ncc(-c3cnn(CC(F)(F)F)c3)nc21 (centres unmarked) [Compound 277]	1 to 100	
Cn1cc(-c2cnc3nnn(Cc4ccc5ncc(Br)n5c4)c3n2)cn1 [Compound 278, 1-((3-Bromoimidazo[1,2-a]pyridin-6-yl)methyl)-6-(1-methyl-1H-pyrazol-4-yl)-1H-[1,2,3]triazolo[4,5-b]pyrazine]	1 to 100	
OCCn1cc(-c2cnc3nnn(Cc4ccc5nccn5n4)c3n2)cn1 [Compound 281]	1 to 100	
N#Cc1ccc(-c2cnc3nnn(Cc4cc5[nH]ncc5s4)c3n2)cn1 [Compound 282]	1 to 100	
c1nn(C2CNC2)cc1-c1cnc2nnn(Cc3cc4[nH]ncc4s3)c2n1 [Compound 283]	1 to 100	
Brc1cnc2nnn(Cc3ccc4ncnn4c3)c2n1 [Compound 284]	100 to 1000	
c1nc2ccc(Cn3nnc4ncc(-c5cnn(C6CNC6)c5)nc43)cn2n1 [Compound 286]	100 to 1000	
